A short description of assay [1]: Randall Selitto Test in the Rat (pain threshold in inflamed paw). It is filed as in vivo, Male Sprague Dawley rats. To be noted: rats; for ED50: Rattus norvegicus, po, 1 hour after dosing, value in parentheses, read-out: Randall Selitto Test in the Rat, ED50 (dose which causes analgesia in 50% of the animals). The source says:
An additional test used to determine the utility of the compounds of the present invention is designated: Randall Selitto Test in the Rat
The objective of this test is to assess the potency of peripheral and central acting drugs in inhibiting the reaction of rats to painful stimulation applied to an inflamed paw.
Male Sprague Dawley rats (180-200 g) are used. The animals are fasted overnight prior to drug administration.
(§1) Drug Preparation and Administration:
Freund's Complete Adjuvant (FCA) is prepared by suspending 5 mg killed and dried mycobacterium butyricum (Difco) in 1 mL mineral oil. The test compounds are dissolved or suspended in 0.5% Tween 80 in distilled water according to their solubility. They are administered by gastric gavage in a volume of 0.5 mL/100 g body weight to groups of 10 animals.
Ten rats are used per group. The method is essentially that described by Randall and Selitto, Arch. Int. Pharmacodyn. 111, 409 (1957) and the apparatus which is used to apply pressure to the paw (Analgesi-meter for the rat paw, Ugo Basile, Comeria, Italy) is a modification of that described by Gilfoil et al, J. Pharmacol. 142, 1 (1963). The instrument is basically a device which exerts a force that increases at a constant rate. The force is continuously monitored by a pointer moving along a linear scale and is measured in grams. The inflammatory reaction is induced in the left hind paw of rats of injecting 0.1 mL of Freund's adjuvant intradermally. The test compound or vehicle is administered 24 hours after the adjuvant. The pain threshold (vocalization) is determined 1 hour later in the inflamed paw of the treated and control groups.
Presentation of Results and Criteria for Activity:
Each animal which has a reading 1.5 times greater than the mean reading of the control-group will be considered as responsive (having an analgesic effect) to treatment. The number of animals showing an analgesic effect is then determined in each group.
The ED50 (dose which causes analgesia in 50% of the animals) using at least 3 doses is then determined, by the method described in Litchfield and Wilcoxon, J. Pharmacol. Exp. Ther., 96, 99-113 (1949).

The nature of assay [2]: Drug Effects on Phenylbenzoquinone-induced Writhing in Mice. Type of assay: in vivo, Male Swiss albino mice. To be noted: Mus musculus, po; for ED50: value in parentheses, read-out: Phenylquinone Writhing in Mice, ED50. Here is the method: A further test used to determine the utility of the compounds of the present invention is designated: Drug Effects on Phenylbenzoquinone-induced Writhing in Mice
The objective of this test is to determine the ability of test drugs to inhibit the nociceptive (pain) response of mice injected with a chemical irritant. This test is a primary screen for both peripheral and centrally acting analgesic drugs.
Male Swiss albino mice (15-25 g). The animals are fasted for 18 hours prior to use but have free access to water.
as §1
Drugs are dissolved or suspended according to their solubility in 0.5% Tween 80 in distilled water. They are administered by gastric gavage in a volume of 5 mL/kg. For primary screening all drugs are administered at the arbitrary dosage of 25 mg/kg, p.o. to a group of 10 mice.
A modification of the method of Siegmund et al, Proc. Soc. Exp. Biol. Med., 95, 729-731 (1957) is used. Groups of 5 mice are dosed with the test compound or vehicle control. Sixty minutes later the animals are injected i.p. with 0.3 mL/20 g body weight of a 0.02% solution of phenylbenzoquinone (PBQ; 2-phenyl-1,4-benzoquinone) and placed in individual observation boxes. The number of writhing or abdominal squirming movements made by each mouse during the following 15 min. period is counted. The experiment is repeated with another group of 5 mice and the mean number of writhes per mouse for a group of 10 mice is calculated.
Drug treated and vehicle-treated control groups are compared and the percentage protection conferred by the drug is calculated: [formula] where c=mean number of writhes in the control group where t=mean number of writhes in the test drug group
On the technique in general: In writhing tests, fewer writhes than in controls are read as antinociception.

A short description of assay [3]: Preventative Adjuvant Edema (acute anti-inflammatory effect in rats). It is filed as in vivo, Male Sprague Dawley rats. Further details: inhibition in vivo: dose or concentration left out as unconfirmed. To be noted: for ED50 / inhibition in vivo / inhibition in vivo at 25 mg/kg: Rattus norvegicus, po, 72 h; for ED50: value in parentheses; for inhibition in vivo / inhibition in vivo at 25 mg/kg / Preventative Adjuvant Edema, percent inhibition: p.o.; for inhibition in vivo / inhibition in vivo at 25 mg/kg: read-out: Preventative Adjuvant Edema, percent inhibition; for inhibition in vivo at 25 mg/kg / Preventative Adjuvant Edema, percent inhibition: 25 mg/kg. As for the experimental part:
This test is a primary screen for anti-inflammatory drugs.
Male Sprague Dawley rats (180-200 g) are used. The animals have free access to water but food is withdrawn 18 hours before testing.
Drug Preparations and Administration:
Freund's complete adjuvant is prepared by suspending 5 mg of killed and dried Mycobacterium butyricum (Difco) in 1 mL mineral oil. The test compounds are dissolved, of suspended in 0.5% Tween 80 in distilled water according to their solubility. For primary screening all drugs are administered by gastric lavage at the arbitrary dosage of 25 mg/kg, p.o. in a volume of 0.5 mL/100 g body weight to groups of 10 animals.
The method is essentially that described by Wax et al, J. Pharmacol. Exp. Ther., 192, 166-171 (1975). Groups of rats are injected intradermally in the left hind paw with 0.1 mL of Freund's complete adjuvant. The test compound or vehicle is administered immediately before the adjuvant, 24 hours and 48 hours after the adjuvant (days 0, 1 and 2). The injected hind paw volume is measured before the injection of adjuvant and 24 hrs. after the last drug administration (day 3) by means of a plethysmometer (Buxco Electronics Inc.). The difference between the hind paw volume on day 0 and day 3 represents the edema volume. Etodolac (25 mg/kg, p.o.) is included as a positive control.
The mean edema volume (expressed as mL±SEM) is calculated for each group and the percentage protection conferred by the drug is calculated: [formula] where c is the mean edema volume for the vehicle-treated (0.5% Tween 80 in distilled water) controls and t is the mean edema volume for the drug treated group.

The nature of assay [4]: Drug Effects on Phenylbenzoquinone-induced Writhing in Mice. To be noted: Mus musculus, po, Tested at 10 mg/kg, p.o., read-out: Phenylquinone Writhing in Mice, percent inhibition. It is filed as in vivo, Male Swiss albino mice.

A word on the ED50: it is the dose that gives a 50% effect, or the effect in half of the subjects. With `C=CCC1COC(CC)(CC(=O)O)c2[nH]c3c(CC)c(F)ccc3c21` (single isomer, unassigned) [Example 10], in assay [1] (Tested at 5 mg/kg, p.o.), the “Randall Selitto Test in the Rat, percent inhibition” value was determined as 60%. The ED50 in assay [2] was determined as 7 mg/kg; in assay [3], 7.8 mg/kg.
Regarding `CCC1(CC(=O)O)OCC(Cc2ccc(F)cc2)c2c1[nH]c1ccccc21` (single isomer, unassigned) [Example 43], in assay [3], the inhibition in vivo is 25%. Also, in assay [4], the inhibition in vivo at 10 mg/kg is 47%.
Take `C=CCC1COC(CC)(CC(=O)O)c2[nH]c3c(C)c(Cl)ccc3c21` (single isomer, unassigned) [Example 16, 7-chloro-1-ethyl-1,3,4,9-tetrahydro-8-methyl-4-(2-propenyl)-pyrano[3,4-b]indole-1-acetic acid]: the figures for the ED50 in assay [1], in assay [2] and in assay [3] were 0.012 mg/kg, 5.5 mg/kg and 3 mg/kg, respectively.
As to `CCC1(CC(=O)O)OCC(Cc2ccccc2)c2c1[nH]c1c(Cl)c(Cl)ccc21` (single isomer, unassigned) [Example 18, 7,8-dichloro-1-ethyl-1,3,4,9-tetrahydro-4-(phenylmethyl)-pyrano[3,4-b]indole-1-acetic acid], the ED50 stood at 0.8 mg/kg in assay [1] and 3.2 mg/kg in assay [2]. In addition, the inhibition in vivo at 25 mg/kg in assay [3] is 15%.
Turning to `CCC1(CC(=O)O)OCC(Cc2ccccc2)c2c1[nH]c1c(C)cccc21` (single isomer, unassigned) [Example 22, 1-ethyl-1,3,4,9-tetrahydro-8-methyl-4-(phenylmethyl)-pyrano[3,4-b]indole-1-acetic acid], the figures for the ED50 in assay [1] and in assay [2] were 0.25 mg/kg and 4.7 mg/kg, respectively. For the same compound, the “Preventative Adjuvant Edema, percent inhibition” value in assay [3] was determined as 47%.
`CCC1(CC(=O)O)OCC(Cc2cccc(C(F)(F)F)c2)c2c1[nH]c1ccccc21` (single isomer, unassigned) [Example 44]: the inhibition in vivo in assay [3] was found to be 25%. For the same compound, in assay [4], the inhibition in vivo at 10 mg/kg worked out at 22%.
The matching figures for `CCC1(CC(=O)O)OCC(Cc2ccc(F)cc2F)c2c1[nH]c1ccccc21` (single isomer, unassigned) [Example 45]: 45% and 29%.
In the case of `CCC1(CC(=O)O)OCC(Cc2ccccc2)c2c1[nH]c1c(C)c(Cl)ccc21` (single isomer, unassigned) [Example 19, 7-chloro-1-ethyl-1,3,4,9-tetrahydro-8-methyl-4-(phenylmethyl)-pyrano[3,4-b]indole-1-acetic acid], the ED50 came to 1.6 mg/kg in assay [1] and 3.3 mg/kg in assay [2]. In addition, in assay [3], the inhibition in vivo at 25 mg/kg was 52%.
Take `CCc1cccc2c3c([nH]c12)C(CC)(CC(=O)O)OCC3Cc1ccccc1` (single isomer, unassigned) [Example 4, 1,8-Diethyl-1,3,4,9-tetrahydro-4-(phenylmethyl)-pyrano[3,4-b]indole-1-acetic Acid]: in assay [1], the ED50 came out at 0.5 mg/kg. In addition, in assay [2] (25 mg/kg, p.o., read-out: Phenylquinone Writhing in Mice, percent inhibition), the inhibition in vivo at 25 mg/kg is 86%. Besides, the “Preventative Adjuvant Edema, percent inhibition” value in assay [3] amounted to 15%.
With `CCC1(CC(=O)O)OCC(Cc2ccc(Cl)cc2)c2c1[nH]c1ccccc21` (single isomer, unassigned) [Example 42], the inhibition in vivo in assay [3] came to 18%. The inhibition in vivo at 10 mg/kg in assay [4] is 24%.
Consider `C=CCC1COC(CC)(CC(=O)O)c2[nH]c3c(CCC)cccc3c21` (single isomer, unassigned) [Example 12, 1-ethyl-1,3,4,9-tetrahydro-4-(2-propenyl)-8-propyl-pyrano[3,4-b]indole-1-acetic acid], for which the ED50 in assay [1] was 1 mg/kg; in assay [2] it was 9.5 mg/kg. Besides, the inhibition in vivo in assay [3] came to 32%.
For `CCC1(CC(=O)O)OCC(Cc2ccccc2)c2c1[nH]c1ccccc21` (single isomer, unassigned; isomer a) [Example 1, 1-Ethyl-1,3,4,9-tetrahydro-4-(phenylmethyl)-pyrano[3,4-b]indole-1-acetic Acid (Isomer A)], the ED50 in assay [1] came out at 0.003 mg/kg; in assay [2], 1.9 mg/kg. Besides, the inhibition in vivo at 25 mg/kg in assay [3] turned out to be 37%.

Source of the values: patent publication US4826994A, “Production of substituted 1,3,4,9-tetrahydropyrano(3,4-B)indole-1-acetic acids” (American Home Products Corporation, priority 1988, dated 1989).
